Structures can show the parent of a compound that is named as a salt.
Columns and labels:
[1] = Chronic corticosterone (CORT) model: body weight; assay type: in vivo, mice; details: male C57BL/6NTac; Flx 18 mg/kg/day in drinking water or RS-67,333 1.5 mg/kg/day in osmotic minipumps for 3 weeks prior to CORT
Procedure: This chronic CORT elevation dysregulates the hypothalamic-pituitary-adrenal axis (HPA) in a manner similar to that observed in clinical depression. The dose and duration of CORT treatment was selected based on previous studies. CORT (35 μg/ml, equivalent to about 5 mg/kg/day) dissolved in 0.45% hydroxypropyl-o-cyclodextrin (0-CD) or vehicle (VEH) (0.45% j-CD) was available ad libitum in the drinking water in opaque bottles to protect it from light. VEH- and CORT-treated water was changed every 3 days to prevent possible degradation. Contextual Fear Conditioning (CFC): A 3-shock CFC procedure was administered as previously published. Briefly, mice were placed into context A and administered 3 2-s shocks (0.75 mA) at 180 s, 240 s or 300 s following placement into context A. Mice were removed from the context 15 s following the termination of shock (at 317 s). For context retrieval, mice were placed back into context A for 300 s. Electrophysiology: Electrophysiology was conducted as previously described. Statistical Analysis: Results from data analyses are expressed as means±SEM. Alpha was set to 0.05 for all analyses. Data were analyzed using GraphPad Prism v7.0 or v8.0. For all experiments, unless otherwise noted, one- or two-way ANOVAs with repeated-measures were applied to the data as appropriate. […] Videos were scored using ANY-maze behavior tracking software (Stoelting, Wood Dale, Ill.). […]

C57BL/6NTac mice = test: Elevated plus maze (EPM) in CORT model; assay type: in vivo; details: male C57BL/6NTac, Flx 18 mg/kg/day or RS-67,333 1.5 mg/kg/day for 3 weeks prior to CORT
Procedure: This chronic CORT elevation dysregulates the hypothalamic-pituitary-adrenal axis (HPA) in a manner similar to that observed in clinical depression. The dose and duration of CORT treatment was selected based on previous studies. CORT (35 μg/ml, equivalent to about 5 mg/kg/day) dissolved in 0.45% hydroxypropyl-o-cyclodextrin (0-CD) or vehicle (VEH) (0.45% j-CD) was available ad libitum in the drinking water in opaque bottles to protect it from light. VEH- and CORT-treated water was changed every 3 days to prevent possible degradation. Contextual Fear Conditioning (CFC): A 3-shock CFC procedure was administered as previously published. Briefly, mice were placed into context A and administered 3 2-s shocks (0.75 mA) at 180 s, 240 s or 300 s following placement into context A. Mice were removed from the context 15 s following the termination of shock (at 317 s). For context retrieval, mice were placed back into context A for 300 s. Electrophysiology: Electrophysiology was conducted as previously described. Statistical Analysis: Results from data analyses are expressed as means±SEM. Alpha was set to 0.05 for all analyses. Data were analyzed using GraphPad Prism v7.0 or v8.0. For all experiments, unless otherwise noted, one- or two-way ANOVAs with repeated-measures were applied to the data as appropriate. Significant main effects and/or interactions were followed by Fisher's PLSD post hoc analysis or unpaired t-tests. Drugs: All drugs were prepared in physiological saline and all injections were administered intraperitoneally (i.p.) in volumes of 0.1 cc per […] body weight unless otherwise noted. Fluoxetine hydrochloride (Flx): Flx (BioTrend Chemicals AG, BG197, Zurich, Germany) was administered in the drinking water (18 mg/kg/day) for 3 weeks before the start of CORT. […] (R,S)-ketamine (K): (R,S)-ketamine (Ketaset III, Ketamine HCl injection, Fort Dodge Animal Health, Fort Dodge, Iowa) was administered in a single dose at 30 mg/kg of body weight 1 week before the start of CFC. […] PF-04995274: PF-04995274 (Sigma, Catalog No. 1331782-27-4, St. Louis, Mo.) was administered a single dose at 3 or 10 mg/kg of body weight 1 week before the start of CFC. PF-04995274 was dissolved in saline using an ultrasonic homogenizer (BioLogics, Model 3000, Manassas, Va.). Osmotic minipump implantation: ALZET osmotic minipumps (Model 2004, […], 28 days) were implanted subcutaneously under isoflurane anesthesia as previously described [S2]. Osmotic minipumps were rotated under the skin two to three times per week. Behavioral Assays: All experiments were approved by the Institutional Animal Care and Use Committee (IACUC) at the New York Psychiatric Institute (NYSPI). […] Videos were scored using ANY-maze behavior tracking software (Stoelting, Wood Dale, Ill.). […]

BALB/cJRj mice [2] = test: Elevated plus maze (EPM), acute anxiolytic-like effect; assay type: in vivo; details: acute systemic administration; fluoxetine 18 mg/kg i.p.
Procedure: (§1) RS67333 (1.5 mg/kg, i.p.), diazepam (1.5 mg/kg, i.p.), fluoxetine (18 mg/kg, i.p.) were injected 45 min before testing in the Elevated Plus Maze (EPM), the Novelty Suppressed Feeding (NSF) or the Open Field (OF) in three independent cohorts of male BALB/cJRj mice.
(§2) To ensure the selectivity of the anxiolytic-like effects of RS67333, in a new cohort of male BALB/cJRj mice, GR125487 (1.0 mg/kg, i.p.) dissolved in 0.9% NaCl solution, was injected 15 minutes before RS67333 administration (1.5 mg/kg, i.p.). EPM or NSF occurred 45 min after RS67333 administration (A-S1). Behavioral consequences of the co-administration of GR125487+RS67333 were compared to RS67333 alone, diazepam (1.5 mg/kg, i.p.) fluoxetine (18 mg/kg, i.p.) and vehicle groups (0.9% saline solution, i.p.).
(§3) For mPFC drug infusion, two bilateral cannulae (75 μm-diameter silica capillary tubing inserted in 27G stainless steel catheter) were implanted in the mPFC [stereotaxic coordinates in mm from bregma: A=+2.10, L=±0.50, V=−2.60, A, anterior; L, lateral; and V, ventral, according to (A-S10)] under anesthesia (chloral hydrate, 400 mg/kg, i.p.). […] Diazepam (1.5 mg/kg) was used as a positive control.
In a new cohort of male BALB/cJRj mice, p-CPA was administered twice daily (at 0900 and 1700 h) for 3 consecutive days. RS67333 ([…]) and diazepam ([…]) were then intra-mPFC administered 24 h after the final p-CPA administration and behavioral test (EPM) occurred 45 minutes after local infusion.
The EPM is a widely used behavioral assay for rodents and it has been validated to assess the anti-anxiety effects of pharmacological agents (A-S11). This test was performed as described by (A-S1). The maze is a plus-cross-shaped apparatus, with two open arms and two arms closed by walls linked by a central platform 50 cm above the floor. Mice were individually put in the center of the maze facing an open arm and were allowed to explore the maze during 5 min for the behavioral consequences of an acute systemic administration or mPFC infusion and during 6 min for the optogenetic experiments. The time spent in and the numbers of entries into the open arms were used as an anxiety index. All parameters were measured using a videotracker (EPM3C, Bioseb, Vitrolles, France).

BALB/cJRj mice [3] = test: Novelty suppressed feeding (NSF), acute anxiolytic-like effect; assay type: in vivo; details: male BALB/cJRj; i.p. 45 min before testing; RS67333 1.5, diazepam 1.5, fluoxetine 18 mg/kg
Procedure: as §1, §2, §3
The NSF is a conflict test that elicits competing motivations: the drive to eat and the fear of venturing into the center of a brightly lit arena. The latency to begin eating is used as an index of anxiety/depression-like behavior, because classical anxiolytic drugs as well as chronic antidepressants decrease this measure. The NSF test was carried out during a 10 min period as previously described (A-S12). Briefly, the testing apparatus consisted of a plastic box (50×50×20 cm), the floor of which was covered with approximately 2 cm of wooden bedding. Twenty-four hours prior to behavioral testing, all food was removed from the home cage. At the time of testing, a single pellet of food (regular chow) was placed on a white paper platform positioned in the center of the box. Each animal was placed in a corner of the box, and a stopwatch was immediately started. The latency to eat (defined as the mouse sitting on its haunches and biting the pellet with the use of forepaws) was timed. Immediately afterwards, the animal was transferred to its home cage, and the amount of food consumed by the mouse in the subsequent 5 min was measured, serving as a control for change in appetite as a possible confounding factor.

CNCCC(Oc1ccc(C(F)(F)F)cc1)c1ccccc1 (centres unmarked) [fluoxetine, Fluoxetine hydrochloride]
CORT-induced increase in body weight [1]: attenuated
time spent in the open arms of the EPM vs VEH+Veh (C57BL/6NTac mice): did not alter
entries into the open arms of the EPM vs CORT+Veh (C57BL/6NTac mice; listed as Flx, hydrochloride): significantly more entries
anxiety-like behavior (BALB/cJRj mice [2]): did not affect anxiety-like behavior
latency to feed (NSF) vs vehicle (BALB/cJRj mice [3]): anxiogenic-like effect

Reference: patent US20220031684A1, “PROPHYLACTIC EFFICACY OF SEROTONIN 4 RECEPTOR AGONISTS AGAINST STRESS” (THE TRUSTEES OF COLUMBIA UNIVERSITY IN THE CITY OF NEW YORK, priority 2019, published 2022)
